Test results reported in US20170107503A1, “NOVEL METHODS, POLYPEPTIDES AND USES THEREOF” (priority 2014, published 2017).

Columns and labels:
Type in all cases: biochemical
Details in all cases: WT-Trp = 100
[1] = test system: Atlantic cod (Gadus morhua) trypsin I variant EZA-007, N98T in SEQ ID NO: 1 (N99T in SEQ ID NO: 2); experiment: Activity assay to determine kinetic constants, EZA-007
Protocol: (§1) Polypeptides corresponding to the wildtype amino acid sequence of trypsin I from Atlantic cod and thirty-eight mutated versions thereof were produced using the methods described in Example A.
(§2) Activation of recombinant enzymes (approximately 0.01 mg/ml) was achieved by adding wild type trypsin (0.2 U/ml) at room temperature and incubate for 24 hours. The mixture was made in 20 mM Tris-HCl, 1 mM CaCl2, 50% glycerol, pH 8.0 to a final volume of 200 μl.
(§3) The substrate (Gly-Pro-Arg) was used at concentrations 0.005-0.15 mM in assay buffer containing 1% DMSO. 245 μL of substrate solutions were pipetted into a 96-well plate. The reaction was started by adding 5 μL of the sample mixture (above) and monitored at 410 nm in a SpectraMax plate reader. Kinetic measurement was performed every minute of a continuous 15-min run.

[2] = test system: Atlantic cod (Gadus morhua) trypsin I variant EZA-005, K154V in SEQ ID NO: 1 (K152V in SEQ ID NO: 2); experiment: Activity assay to determine kinetic constants, EZA-005
Protocol: as §1, §2, §3

[3] = test system: Atlantic cod (Gadus morhua) trypsin I variant EZA-009, L185G, P225Y in SEQ ID NO: 1 (L184G, P221Y in SEQ ID NO: 2); experiment: Activity assay to determine kinetic constants, EZA-009
Protocol: as §1, §2, §3

[4] = biological target: T1, Atlantic cod (Gadus morhua) trypsin I variant EZA-006, K154E in SEQ ID NO: 1 (K152E in SEQ ID NO: 2) (Gadus morhua, UniProt P16049, K152E); experiment: Activity assay to determine kinetic constants, EZA-006
T1 construct: made in house; host or cells: E. coli BL21 (DE3)
Protocol: as §1, §2, §3

[5] = test system: Atlantic cod (Gadus morhua) trypsin I variant EZA-004, K154L in SEQ ID NO: 1 (K152L in SEQ ID NO: 2); experiment: Activity assay to determine kinetic constants, EZA-004
Protocol: as §1, §2, §3

[6] = test system: Atlantic cod (Gadus morhua) trypsin I variant EZA-002, N244S, Y245N, S87K in SEQ ID NO: 1 (N240S, Y241N, S88K in SEQ ID NO: 2); experiment: Activity assay to determine kinetic constants, EZA-002
Protocol: as §1, §2, §3

[7] = biological target: T2, Atlantic cod (Gadus morhua) trypsin I, wildtype, purified from Atlantic cod (WT-Trp), SEQ ID NO: 1 (Gadus morhua, UniProt P16049); experiment: Activity assay to determine kinetic constants, WT-Trp (purified)
T2 construct: from tissue
T2 sequence (P16049 20-241): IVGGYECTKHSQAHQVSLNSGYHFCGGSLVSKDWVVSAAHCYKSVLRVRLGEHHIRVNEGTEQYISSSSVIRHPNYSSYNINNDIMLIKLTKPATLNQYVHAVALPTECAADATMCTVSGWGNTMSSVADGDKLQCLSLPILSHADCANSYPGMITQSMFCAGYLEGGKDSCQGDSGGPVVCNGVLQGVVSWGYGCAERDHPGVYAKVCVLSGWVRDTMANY
Protocol: The following polypeptides were obtained or produced: • (a) Wildtype trypsin I purified from Atlantic cod (“WT-Tryp” or “wildtype”); • (b) Recombinantly expressed wildtype trypsin I of Atlantic cod (SEQ ID NO:1, “R-Tryp”); and • (c) Thirty-eight different mutated versions of trypsin I of Atlantic cod (i.e. mutated sequences of SEQ ID NO:1).
as §3

[8] = test system: Atlantic cod (Gadus morhua) trypsin I variant EZA-008, I99L in SEQ ID NO: 1 (I100L in SEQ ID NO: 2); experiment: Activity assay to determine kinetic constants, EZA-008
Protocol: as §1, §2, §3

[9] = biological target: T3, Atlantic cod (Gadus morhua) trypsin I variant EZA-003, K154T in SEQ ID NO: 1 (K152T in SEQ ID NO: 2) (Gadus morhua, UniProt P16049, K152T); experiment: Activity assay to determine kinetic constants, EZA-003
T3 construct: made in house; host or cells: E. coli BL21 (DE3)
Protocol: as §1, §2, §3

[10] = biological target: T4, Atlantic cod (Gadus morhua) trypsin I, recombinant wildtype, EZA-001, SEQ ID NO: 1 (Gadus morhua, UniProt P16049); experiment: Activity assay to determine kinetic constants, EZA-001
T4 construct: made in house; host or cells: E. coli BL21 (DE3)
T4 sequence (P16049 20-241): T2 sequence (P16049 20-241)
Protocol: as §1, §2, §3

T3 sequence (P16049 20-241 K152T): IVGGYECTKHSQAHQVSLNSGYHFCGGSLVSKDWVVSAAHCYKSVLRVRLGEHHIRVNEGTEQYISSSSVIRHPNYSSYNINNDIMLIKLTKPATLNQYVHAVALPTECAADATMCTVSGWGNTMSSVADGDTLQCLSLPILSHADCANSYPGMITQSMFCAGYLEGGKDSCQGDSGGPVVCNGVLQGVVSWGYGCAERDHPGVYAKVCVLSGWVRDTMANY
T1 sequence (P16049 20-241 K152E): as the sequence (P16049 20-241 K152T) above, with T133E counted along it

In the case of Gly-Pro-Arg, the “Vmax, Relative to WT-Trp” value [1] is reported as 99, the “Vmax, Relative to WT-Trp” value [2] is reported as 96 and the “Vmax, Relative to WT-Trp” value [3] is reported as 98. For the same substance, the “Vmax, Relative to WT-Trp” value [4] was 98, the “Vmax, Relative to WT-Trp” value [5] was 82 and the “Vmax, Relative to WT-Trp” value [6] was 99. For the same substance, the “Vmax (Kcat), Relative to WT-Trp” value [7] was 100, the “Vmax, Relative to WT-Trp” value [8] was 95 and the “Vmax, Relative to WT-Trp” value [9] was 96. The “Vmax, Relative to WT-Trp” value [10] was 99.
